# In patent US12516052B2, “Methyltransferase 5 (PRMT5) inhibitors and methods of treatment” (THE TRUSTEES OF INDIANA UNIVERSITY, priority 2016, dated 2026):
# pIC50: −log10 of the molar value. “Also recorded” adds a separate entry of the source.
# Assays:
# [1] = system: PDAC cells (PANC1, MiaPaCa2 and AsPC1); assay: MTT cell viability assay in PDAC cell lines; assay type: cell-based; conditions: for cell viability in PDAC cells (PANC1, MiaPaCa2, AsPC1), MTT: increasing concentrations; for pIC50: range over PANC1, MiaPaCa2 and AsPC1
# Experimental: (§1) The PRMT5 inhibitory activity of the compounds from the screen was confirmed using both AlphaLISA and an MTT [(3-(4,5-dimethylthiazolyl-2)-2,5-diphenyltetrazolium bromide)] assay (PerkinElmer, Waltham, MA). For the MTT assay, cells were seeded at 90% confluence in 96-well plates and titrated with different dosages of compound (IIa) for 4 days. Media was then removed and 100 μl of MTT (Sigma-Aldrich, St. Louis, MO) was added per well. Cells were incubated for 2 hours at 37° C. before adding 100 μl of DMSO to each well and quantified with the SYNERGY™ H1 Multi-Mode Reader (BioTek Instruments Inc., Winooski, VT). The expression of PRMT5 was examined in pancreatic ductal adenocarcinoma cells at multiple stages of disease progression and in multiple colorectal cancer cell lines. Pancreatic control (HPNE) and cancer cell lines (PANC1, MiaPaCa2 and AsPC1) were grown in Dulbecco's Modified Eagle Medium (DMEM) (GE Healthcare, Little Chalfont, UK), supplemented with 1% of penicillin/streptomycin, 10% fetal bovine serum (FBS). Colon control (FHC) and cancer (HT29, HCT116, and DLD1) cell lines were maintained in RPMI 1640 Medium (Roswell Park Memorial Institute Medium) (GE Healthcare, Little Chalfont, UK), containing 1% penicillin/streptomycin and 10% FBS, while FHC cells were cultured under the same condition with further addition of 25 mM HEPES (4-(2-hydroxyethyl)-1-piperazineethanesulfonic acid), 10 ng/ml cholera toxin, 0.005 mg/ml insulin, 0.005 mg/ml transferring, and 100 ng/ml hydrocortisone. All cell lines were cultured at 37° C. under 5% CO2. The PDAC and CRC cell lines described above were treated with increasing concentrations of compound (IIa) or the commercially available PRMT5 inhibitor EPZ015666 [drawing 12] and quantified for cell viability using the MTT assay described above. […] A soft agar experiment was also performed to determine the effect of compound (IIa) on colony growth.
# [2] = system: CRC cells (HT29, HCT116 and DLD1); assay: MTT cell viability assay in CRC cell lines; assay type: cell-based; conditions: for cell viability in CRC cells (HT29, HCT116, DLD1), MTT: increasing concentrations; for pIC50: range over HT29, HCT116 and DLD1
# Experimental: as §1
# NF-κB [3] = assay: NF-κB luciferase assay in PANC1 cells; assay type: cell-based; conditions: increasing concentrations
# From the text: (§2) Previously, it was discovered that PRMT5 activates NF-κB through methylation of its p65 subunit in HEK293 cells (Wei et al., Proc Natl Acad Sci USA, 2013; 110: 13516-13521; Wei et al., Cell Cycle, 2013; 13: 32-41). As shown in FIGS. 11A and 11B, overexpression of PRMT5 enhances NF-κB activity, while PRMT5 knockdown causes the opposite effect in both PANC1 (FIG. 11A) and HT-29 (FIG. 11B) cells. To determine if compound (IIa) decreases NF-κB activity, cells transfected with a NF-κB luciferase construct were treated with increasing concentrations of compound (IIa) or the control compound EPZ015666.
# NF-κB [4] = assay: NF-κB luciferase assay in HT29 cells; assay type: cell-based; conditions: increasing concentrations
# From the text: as §2
# PRMT5 = target: T1, PRMT5 (Homo sapiens, UniProt O14744); assay: AlphaLISA PRMT5 methylation assay (biotin-histone H4R3, SAM); assay type: biochemical; conditions: PRMT5 methylation of histone H4R3, in vitro; read-out: IC50 using AlphaLISA
# T1 construct: Flag; made in house; host or cells: 293 cells
# T1 sequence (O14744 whole entry): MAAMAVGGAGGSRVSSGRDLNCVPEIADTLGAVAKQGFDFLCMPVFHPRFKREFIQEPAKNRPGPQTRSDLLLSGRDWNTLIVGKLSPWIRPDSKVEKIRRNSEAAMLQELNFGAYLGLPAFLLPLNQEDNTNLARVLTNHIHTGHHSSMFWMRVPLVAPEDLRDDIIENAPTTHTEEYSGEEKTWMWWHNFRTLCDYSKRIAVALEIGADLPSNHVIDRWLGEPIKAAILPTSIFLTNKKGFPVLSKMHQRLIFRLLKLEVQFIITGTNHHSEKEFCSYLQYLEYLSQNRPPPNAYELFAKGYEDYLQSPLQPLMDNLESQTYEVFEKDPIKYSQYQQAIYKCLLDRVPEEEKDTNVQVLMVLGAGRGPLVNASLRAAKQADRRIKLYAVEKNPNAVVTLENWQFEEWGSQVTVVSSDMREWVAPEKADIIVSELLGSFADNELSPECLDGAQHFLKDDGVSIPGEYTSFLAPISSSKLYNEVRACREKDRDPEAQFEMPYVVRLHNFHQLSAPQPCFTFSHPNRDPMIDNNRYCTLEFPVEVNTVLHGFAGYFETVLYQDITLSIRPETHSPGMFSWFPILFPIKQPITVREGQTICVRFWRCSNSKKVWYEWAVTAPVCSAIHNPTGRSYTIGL
# T1 sequence (Q9BQA1 whole entry partner): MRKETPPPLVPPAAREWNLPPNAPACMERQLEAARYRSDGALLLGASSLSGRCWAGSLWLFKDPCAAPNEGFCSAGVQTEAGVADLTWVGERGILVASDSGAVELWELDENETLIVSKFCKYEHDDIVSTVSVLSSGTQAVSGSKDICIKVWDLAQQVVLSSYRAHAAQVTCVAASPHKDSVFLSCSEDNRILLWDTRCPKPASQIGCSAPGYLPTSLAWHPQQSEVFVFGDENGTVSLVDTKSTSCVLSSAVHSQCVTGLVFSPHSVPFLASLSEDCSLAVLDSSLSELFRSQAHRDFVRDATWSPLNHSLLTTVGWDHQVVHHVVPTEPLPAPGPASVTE
# Experimental: FIG. 1 is a schematic illustration of the AlphaLISA technique for the identification of small-molecule PRMT5 inhibitors. Biotinylated substrate (histone H4) is incubated with PRMT5 and methyl donor, S-adenosyl-1-methionine (SAM). PRMT5 symmetrically dimethylates the third arginine (R3) on biotin-H4 to form biotin-H4R3me2. This product is recognized by Acceptor beads specific for this methylation site. Donor beads have a streptavidin tag and bind to biotin-H4. Interaction between the Acceptor and Donor beads emits a chemiluminescent signal, which is detected by an ENVISION™ Reader (PerkinElmer, Waltham, MA). The methylation activity of PRMT5 is proportional to the intensity of this signal.
# In order to identify PRMT5 inhibitors, the AlphaLISA technique (PerkinElmer, Waltham, MA) was adapted to an assay that could precisely quantify PRMT5 dimethylation of its substrate in a 384-well HTS platform (FIG. 1). The AlphaLISA high-throughput screen comprises incubating a biotinylated substrate (e.g., histone H4), PRMT5, and a methyl donor (e.g., S-adenosyl-1-methionine (SAM)); PRMT5 dimethylates the biotinylated substrate and the dimethylated biotinylated substrate is recognized by Acceptor beads specific for the methylation site. Donor beads comprising a tag (e.g., streptavadin) bind to the biotinylated substrate, and interaction between the Acceptor beads and Donor beads emits a signal (e.g., chemiluminescent signal), which can be detected. The methylation activity of PRMT5 is proportional to the intensity of the signal.
# In one embodiment of the method used to identify the compounds disclosed herein, PRMT5 enzyme was purified with anti-Flag-M2 beads (Sigma-Aldrich, St. Louis, MO) from 293 cells overexpressing the Flag-PRMT5 protein (Wei et al., Proc Natl Acad Sci USA, 2013; 110: 13516-13521). The enzyme prep was diluted at 1:10 in assay buffer (30 mM Tris, pH 8.0, 1 mM DTT, 0.01% BSA, 0.01% Tween-20) before use. […] The plates were read using an ENVISION™ Reader (PerkinElmer, Waltham, MA).
# HT-29 colon cancer cells = assay: MTT cell viability assay in HT-29 cells; assay type: cell-based; conditions: for pIC50: 4 days treatment
# Experimental: (§3) The PRMT5 inhibitory activity of the compounds from the screen was confirmed using both AlphaLISA and an MTT [(3-(4,5-dimethylthiazolyl-2)-2,5-diphenyltetrazolium bromide)] assay (PerkinElmer, Waltham, MA). For the MTT assay, cells were seeded at 90% confluence in 96-well plates and titrated with different dosages of compound (IIa) for 4 days. Media was then removed and 100 μl of MTT (Sigma-Aldrich, St. Louis, MO) was added per well. Cells were incubated for 2 hours at 37° C. before adding 100 μl of DMSO to each well and quantified with the SYNERGY™ H1 Multi-Mode Reader (BioTek Instruments Inc., Winooski, VT).
# (§4) In order to identify small-molecule PRMT5 inhibitors with increased efficacy compared to compound (IIa), lead optimization of compound (IIa) was performed. Briefly, the pyrozolo-pyrimidine core was maintained and peripheral groups were either added or modified. Compounds were tested to identify PRMT5 inhibitors and their corresponding IC50 values using an MTT assay. For the MTT assay cells (HT-29 or PANC1) were seeded at 90% confluence in 96-well plates and titrated with different dosages of compound (IIa) for 4 days. Media was then removed and 100 μl of MTT (Sigma-Aldrich) was added per well. Cells were incubated for 2 hours at 37° C. before adding 100 μl of DMSO to each well and quantified with the Synergy H1 Multi-Mode Reader (BioTek Instruments Inc., Winooski, VT).
# [5] = system: PANC1 pancreatic cancer cells; assay: MTT cell viability assay in PANC1 cells; assay type: cell-based; conditions: for pIC50: 4 days treatment
# Experimental: as §3, §4
# PANC1 cells = assay: PANC1 subcutaneous xenograft tumor efficacy study in NSG mice; assay type: in vivo; conditions: 20 mg/kg intraperitoneally 3×/week, vs vehicle control, n=4
# Experimental: (§5) NSG (NOD scid gamma) mice were obtained from the In Vivo Therapeutics Core at Indiana University School of Medicine. After acclimation for 7 days, NSG mice (6-8 weeks old) were xenografted with mycoplasma-free PANC1 or HT29 cells subcutaneously (1×10^7 PANC1 or 3×10^6 HT29 cells used per mouse in 0.2 ml of a 1:1 mix of phosphate-buffered saline and MATRIGEL™) (BD Biosciences, San Jose, CA). Mice were randomized when tumor volumes reached about 100 mm^3. Mice were treated with either vehicle control or 20 mg/kg of compound (Ia) (drug stock dissolved in 1:1 CREMOPHOR™:ethanol solution) intraperitoneally 3 times per week. Tumor volumes and body weights were measured twice a week. The study was performed in accordance with the guidelines and standards of the Institutional Animal Care and Use Committee (IACUC). […] NSG (NOD scid gamma) mice were obtained from the In Vivo Therapeutics Core at Indiana University School of Medicine. After acclimation for 7 days, NSG mice (6-8 weeks old) were xenografted with mycoplasma-free PANC1 or HT29 cells subcutaneously (1×10^7 PANC1 or 3×10^6 HT29 cells used per mouse in 0.2 ml of a 1:1 mix of phosphate-buffered saline and MATRIGEL™) (BD Biosciences, San Jose, CA). Mice were randomized when tumor volumes reached about 100 mm^3. […] Tumor volumes and body weights were measured twice a week. […]
# HT29 cells = assay: HT29 subcutaneous xenograft tumor efficacy study in NSG mice; assay type: in vivo; conditions: 20 mg/kg intraperitoneally 3×/week, vs vehicle control, n=4
# Experimental: as §5
# [6] = Body weight of xenografted NSG mice during treatment; assay type: in vivo; conditions: 20 mg/kg intraperitoneally 3×/week, over the course of treatment
# Experimental: NSG (NOD scid gamma) mice were obtained from the In Vivo Therapeutics Core at Indiana University School of Medicine. After acclimation for 7 days, NSG mice (6-8 weeks old) were xenografted with mycoplasma-free PANC1 or HT29 cells subcutaneously (1×10^7 PANC1 or 3×10^6 HT29 cells used per mouse in 0.2 ml of a 1:1 mix of phosphate-buffered saline and MATRIGEL™) (BD Biosciences, San Jose, CA). Mice were randomized when tumor volumes reached about 100 mm^3. Mice were treated with either vehicle control or 20 mg/kg of compound (Ia) (drug stock dissolved in 1:1 CREMOPHOR™:ethanol solution) intraperitoneally 3 times per week. Tumor volumes and body weights were measured twice a week. The study was performed in accordance with the guidelines and standards of the Institutional Animal Care and Use Committee (IACUC). […] NSG (NOD scid gamma) mice were obtained from the In Vivo Therapeutics Core at Indiana University School of Medicine. After acclimation for 7 days, NSG mice (6-8 weeks old) were xenografted with mycoplasma-free PANC1 or HT29 cells subcutaneously (1×10^7 PANC1 or 3×10^6 HT29 cells used per mouse in 0.2 ml of a 1:1 mix of phosphate-buffered saline and MATRIGEL™) (BD Biosciences, San Jose, CA). Mice were randomized when tumor volumes reached about 100 mm^3. Mice were treated with either vehicle control or 20 mg/kg of compound (IIa) (drug stock dissolved in 1:1 CREMOPHOR™:ethanol solution) intraperitoneally 3 times per week. Tumor volumes and body weights were measured twice a week. The study was performed in accordance with the guidelines and standards of the Institutional Animal Care and Use Committee (IACUC).
structure (smiles),measurement,setting,value
"O=C(NC[C@H](O)CN1CCc2ccccc2C1)c1cc(NC2COC2)ncn1 [EPZ015666, reference compound]","cell viability in PDAC cells (PANC1, MiaPaCa2, AsPC1), MTT",[1],lower efficacy
same,pIC50,[1],4.02 to 4.30
same,"cell viability in CRC cells (HT29, HCT116, DLD1), MTT",[2],lower efficacy
same,pIC50,[2],3.71 to 3.74
same,"NF-κB activation (luciferase), PANC1",NF-κB [3],much higher concentration; also recorded: needed a higher concentration
same,"NF-κB activation (luciferase), HT29",NF-κB [4],much higher concentration; also recorded: needed a higher concentration
O=C(NC[C@H]1C[C@@H]2CC[N@@]1C[C@@H]2CN1CCC(Cc2ccccc2)CC1)c1ccc2c(c1)OCO2 [compound (IIIa)],pIC50,PRMT5,~5.82
same,"cell viability in PDAC cells (PANC1, MiaPaCa2, AsPC1), MTT",[1],decreased significantly
same,pIC50,[1],4.90 to 5.07
same,"cell viability in CRC cells (HT29, HCT116, DLD1), MTT",[2],decreased significantly
same,pIC50,[2],4.96 to 5.30
COc1cc(C)c(Oc2cc(C)cc(O)c2O)c(O)c1 [compound (IVa)],pIC50,PRMT5,~4.78
same,"cell viability in PDAC cells (PANC1, MiaPaCa2, AsPC1), MTT",[1],decreased significantly
same,pIC50,[1],4.29 to 4.66
same,"cell viability in CRC cells (HT29, HCT116, DLD1), MTT",[2],decreased significantly
same,pIC50,[2],4.30 to 4.46
Cc1ccc(-n2ncc3c(NCc4cccnc4)nc(Cl)nc32)cc1 [compound (Ia)],pIC50,HT-29 colon cancer cells,5.66
same,pIC50,"HT-29 colon cancer cells; Homo sapiens, HT-29, 96 h",5.70
same,"cell viability in CRC cells (HT29), MTT",HT-29 colon cancer cells; increasing concentrations,decreased significantly
same,"cell viability in PDAC cells (PANC1), MTT",[5]; increasing concentrations,decreased significantly
same,"tumor growth (tumor volume), PANC1 xenograft",PANC1 cells,significant tumor inhibition effect; also recorded: inhibition of tumor growth
same,"tumor growth (tumor volume), HT29 xenograft",HT29 cells,significant tumor inhibition effect; also recorded: inhibition of tumor growth
same,"body weight, HT29 model",[6],did not visibly affect the body weight; also recorded: no significant changes in body weight
same,"body weight, PANC1 model",[6],did not visibly affect the body weight; also recorded: no significant changes in body weight
Clc1ccc(-n2ncc3c(NCCN4CCCC4)nc(Cl)nc32)cc1 [compound (Ib)],pIC50,"[5]; Homo sapiens, PANC-1, 96 h",4.96
Clc1ccc(-n2ncc3c(NCC4CCCO4)nc(Cl)nc32)cc1 (centres unmarked) [compound (If)],pIC50,"HT-29 colon cancer cells; Homo sapiens, HT-29, 96 h",5.15
same,pIC50,"[5]; Homo sapiens, PANC-1, 96 h",5.10
Clc1ccc(-n2ncc3c(NCC4CCCO4)nc(Cl)nc32)cc1 (centres unmarked) [compound (Ig)],pIC50,HT-29 colon cancer cells,5.15
same,pIC50,[5],4.96
